In data set [1] the target is T1, PPARγ-RXRα heterodimer (Homo sapiens, UniProt P37231).
T1 construct: expressed in transfected cells; host or cells: CHO-K1
T1 sequence (P37231 1-477 isoform P37231-2): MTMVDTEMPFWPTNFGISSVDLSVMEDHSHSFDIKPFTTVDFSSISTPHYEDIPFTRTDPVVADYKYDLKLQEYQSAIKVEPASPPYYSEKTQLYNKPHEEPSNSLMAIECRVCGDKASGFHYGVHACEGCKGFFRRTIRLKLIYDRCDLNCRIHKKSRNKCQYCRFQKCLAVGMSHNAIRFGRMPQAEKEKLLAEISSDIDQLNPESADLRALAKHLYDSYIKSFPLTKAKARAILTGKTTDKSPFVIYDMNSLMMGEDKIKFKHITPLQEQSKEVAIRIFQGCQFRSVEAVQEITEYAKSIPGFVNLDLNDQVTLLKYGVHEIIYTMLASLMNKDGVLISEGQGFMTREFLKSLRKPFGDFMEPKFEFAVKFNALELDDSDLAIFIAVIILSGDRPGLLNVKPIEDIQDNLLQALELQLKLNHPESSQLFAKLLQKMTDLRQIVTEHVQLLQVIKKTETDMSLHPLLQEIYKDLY
T1 sequence (P19793 1-462 partner): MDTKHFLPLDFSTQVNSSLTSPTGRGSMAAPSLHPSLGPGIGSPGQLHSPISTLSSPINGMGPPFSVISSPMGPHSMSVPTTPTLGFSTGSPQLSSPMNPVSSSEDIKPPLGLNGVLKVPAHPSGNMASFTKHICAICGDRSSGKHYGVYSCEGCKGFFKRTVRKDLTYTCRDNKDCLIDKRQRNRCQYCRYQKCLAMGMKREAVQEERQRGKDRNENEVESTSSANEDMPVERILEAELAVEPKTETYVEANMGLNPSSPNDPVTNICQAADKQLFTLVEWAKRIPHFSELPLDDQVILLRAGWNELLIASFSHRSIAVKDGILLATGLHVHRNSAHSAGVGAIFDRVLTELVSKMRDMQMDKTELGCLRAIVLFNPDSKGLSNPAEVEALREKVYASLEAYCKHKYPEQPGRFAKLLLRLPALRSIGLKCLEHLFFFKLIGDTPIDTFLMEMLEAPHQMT
The data set can be described thus: PPARγ-RXRα heterodimer ligand activity, luciferase reporter in PPARγ:RXRα:4ERPP/CHO-K1 cells (Test Example 3). Format: cell-based. The note with it: concentration for 50% of the maximum fold induction of luciferase activity; 48 hours, CHO-K1 cells. As to the method: A PPARγ:RXRα:4ERPP/CHO-K1 cells obtained in Reference Example 5 described later were cultured in HAM F12 medium (produced by NISSUI SEIYAKU) containing 10% Fetal bovine serum (produced by Life Technologies, Inc., USA) and then inoculated to a 96-well white plate (produced by Corning Costar Corporation, USA) at the density of 2×10^4 cells/well, and cultured in a CO2 gas incubator at 37° C. overnight.
After washing the 96 well white plate with PBS (Phosphate-buffered saline), 90 μl of HAM F12 medium containing 0.1% fatty acid-free bovine serum albumin (BSA) and 10 μl of test compound were added, which was cultured in a CO2 gas incubator at 37° C. for 48 hours. After removing the medium, 40 μl of PIKKAGENE 7.5 (produced by Wako Pure Chemical Industries, Ltd.) was added. After stirring, the luciferase activity was determined using Lumistar (produced by BMG Labtechnologies GmbH, Germany).
A fold induction was calculated based on the luciferase activity of each test compound by taking the luciferase activity in the test compound non administration group as 1. The values of the test compound, concentration and the fold induction were analyzed using PRISM 2.01 (produced by GraphPad Software Inc. USA) to calculate the EC50 values, the effective concentration of a test compound for 50% of the maximum fold induction.
After a CHO-K1 cell cultured in a 750 ml tissue culture flask (produced by Corning-Costar Corporation, USA) containing HAM F12 medium (produced by NISSUI SEIYAKU) supplemented with 10% Fetal Bovine Serum (produced by Life Technologies, Inc., USA) was scraped by treating with 0.5 g/L trypsin-0.2 g/L EDTA (ethylenediaminetetraacetic acid) (produced by Life Technologies, Inc., USA), the cell was washed with PBS (phosphate buffered saline) (produced by Life Technologies, Inc., USA), centrifuged (1000 rpm, 5 minutes), and then suspended in PBS. Subsequently, a DNA was introduced into the cell under the condition shown below using GENE PULSER (produced by Bio-Rad Laboratories, USA).
Namely, to a cuvette having a 0.4 cm gap, added were 8×10^6 cells and 10 μg of plasmid pVgRXR2-hPPARγ obtained in Reference Example 3 and 10 μg of reporter plasmid pGL3-4ERPP-TK neo obtained in Reference Example 4, which was subjected to electroporation at the voltage of 0.25 kV under the capacitance of 960 μF. Subsequently, the cell was transferred into a HAM F12 medium containing 10% Fetal Bovine. Serum and cultured for 24 hours. Then the cell was scraped again and centrifuged, and then suspended in HAM F12 medium containing 10% Fetal Bovine Serum supplemented with 500 μg/ml of GENETICIN (produced by Life Technologies, Inc., USA) and 250 μg/ml of ZEOCIN (produced by Invitrogen, USA). The suspension was diluted to the density of 10^4 cells/ml, and inoculated to a 96-well plate (produced by Corning Costar Corporation, USA), which was cultured in a CO2 gas incubator at 37° C., whereby obtaining a GENETICIN- and ZEOCIN-resistant transformant.
Subsequently, after the transformant cell line thus obtained was cultured in a 24-well plate (produced by Corning Costar Corporation, USA), selected was a cell line, PPARγ:RXRα:4ERPP/CHO-K1 cell, in which the luciferase was expressed and induced by addition of 10 μM pioglitazone hydrochloride.
(In general: A reporter such as luciferase makes a cellular process visible.)

For data set [2], the system named is KKAY mice. The data set can be described thus: Hypoglycemic and hypolipidemic actions in mice (Test Example 1). Format: in vivo. The conditions noted are these: Mus musculus, po, 96 h, 0.005% in powdery diet, four days. From the text: Test compounds were mixed in a powdery diet (CE-2, Japan Clea) at the concentration of 0.01% (compounds of Examples 7, 26, 29, 32) or 0.005% (compounds of Examples 1, 11, 15, 18, 24, 36, 37, 41, 48, 50, 51, 52, 58, 62, 79, 83, 88, 90, 91, 92, 93, 97, 107, 110, 115, 119, 122, 125, 129 and 130), and freely given to KKAY mice (11 to 12 weeks old, 5 mice in a group), a model of type 2 diabetes mellitus, for four days. During this period, water was given freely. Blood was sampled from orbital venous plexus, and glucose and triglyceride levels in plasma separated from blood were determined enzymatically using L type Wako Glu2 (Wako Pure Chemical Industries, Ltd.) or L type Wako TG.H (Wako Pure Chemical Industries, Ltd.), respectively.
In the Table, “hypoglycemic action (%)” means a percent reduction (%) of the glucose level in the test compound administration group when that of the test compound non-administration group is taken as 100%. In addition, the “hypolipidemic action (%)” means a percent reduction (%) of the triglyceride level in the test compound administration group when that of the test compound non-administration group is taken as 100%.

Setting [3] is: percent reduction of plasma glucose level vs non-administration group, read-out: hypoglycemic action (%).
The mark [4] stands for this setting: percent reduction of plasma triglyceride level vs non-administration group, read-out: hypolipidemic action (%).

This note sets out measurements from patent US7238716B2, “Alkanoic acid derivatives process for their production and use thereof” (Takeda Pharmaceuticals Company Limited, priority 2000, dated 2007).

What is called EC50 is the concentration that produces a half-maximal response. Low values mean an effect from little substance, high ones a need for much substance. What is called melting point is the temperature, or range, at which the solid turns liquid.

Read-outs that look alike come from different tables or passages of the source.

In data set [1], `Cc1oc(-c2ccccc2)nc1CN(C(=O)OC(C)(C)C)c1ccc(COc2ccccc2CC(=O)O)cc1` [Example 60, 2-[2-[4-[(t-butoxycarbonyl)[(5-methyl-2-phenyl-4-oxazolyl)methyl]amino]benzyloxy]phenyl]acetic acid] showed an EC50 of 6.1 nM. This lies in the single-digit nanomolar range.

For `CCOc1cc(OCc2ccc(OCc3nc(-c4ccccc4)oc3C)cc2)ccc1CCC(=O)O` [Example 66, 3-[2-ethoxy-4-[4-[(5-methyl-2-phenyl-4-oxazolyl)methoxy]benzyloxy]phenyl]propionic acid], the melting point lay within 135 to 136 °C. The compound further yielded an EC50 in data set [1] of 940 nM.

For `CCOc1cc(OCc2cccc(OCc3nc(-c4ccccc4)oc3C)c2)ccc1CCC(=O)O` [Example 71, 3-[2-ethoxy-4-[3-[(5-methyl-2-phenyl-4-oxazolyl)methoxy]benzyloxy]phenyl]propionic acid], the melting point is 122 to 123 °C. The same compound returned an EC50 in data set [1] of 330 nM.

As for `Cc1oc(-c2ccccc2)nc1COc1cncc(COc2cccc(CC(=O)O)c2)c1` [Example 78, 2-[3-[5-[(5-methyl-2-phenyl-4-oxazolyl)methoxy]-3-pyridylmethoxy]phenyl]acetic acid], the melting point lay within 143 to 144 °C. Besides, the EC50 in data set [1] was 190 nM.

Compound `Cc1oc(-c2ccccc2)nc1COc1cc(COc2cccc(CC(=O)O)c2)on1` [Example 81, 2-[3-[3-(5-methyl-2-phenyl-4-oxazolylmethoxy)-5-isoxazolylmethloxy]phenyl]acetic acid] gave a melting point of 128 to 129 °C. Also, the EC50 in data set [1] is 62 nM.

For the compound `CCCc1ccc(OCc2ccc(OCc3nc(-c4ccccc4)oc3C)cc2)c(CC(=O)O)c1` [Example 83, 2-[2-[4-[(5-methyl-2-phenyl-4-oxazolyl)methoxy]benzyloxy]-5-propylphenyl]acetic acid], the melting point lay in the range of 116 to 117 °C. The same compound displayed an EC50 in data set [1] of 110 nM. Moreover, the inhibition in vivo at 0.005 % in data set [2] (setting [3]) was 48%. Moreover, in data set [2] (setting [4]), the inhibition in vivo at 0.005 % came out at 43%.

As for `CCCc1oc(-c2ccccc2)nc1COc1ccc(COc2ccccc2CC(=O)O)cc1` [Example 85, 2-[2-[4-[(2-phenyl-5-propyl-4-oxazolyl)methoxy]benzyloxy]phenyl]acetic acid], the melting point fell in the range of 129 to 130 °C. The compound also had an EC50 in data set [1] of 260 nM.

As to `Cc1oc(-c2ccco2)nc1COc1cc(COc2cccc(CC(=O)O)c2)ccn1` [Example 90], the melting point was in the range of 136 to 137 °C. Moreover, the EC50 in data set [1] was 52 nM. For the same compound, in data set [2] (setting [3]), the inhibition in vivo at 0.005 % turned out to be 30%. Further, the inhibition in vivo at 0.005 % in data set [2] (setting [4]) was found to be 40%.

In turn, `Cc1oc(-c2ccccc2)nc1CCc1nc(COc2ccccc2CC(=O)O)co1` [Example 99, 2-[2-[[2-[2-(5-methyl-2-phenyl-4-oxazolyl)ethyl]-4-oxazolyl]methoxy]phenyl]acetic acid] returned a melting point of 109 to 110 °C. In data set [1], the EC50 was found to be 160 nM.

As for `Cc1oc(-c2ccccc2)nc1CCc1nc(COc2cccc(CC(=O)O)c2)co1` [Example 101, 2-[3-[[2-[2-(5-methyl-2-phenyl-4-oxazolyl)ethyl]-4-oxazolyl]methoxy]phenyl]acetic acid], the melting point fell in the range of 127 to 128 °C. Moreover, the EC50 in data set [1] came out at 43 nM.

In turn, `Cc1oc(-c2ccccc2)nc1CCc1nc(COc2ccccc2CC(=O)O)cs1` [Example 103, 2-[2-[[2-[2-(5-methyl-2-phenyl-4-oxazolyl)ethyl]-4-thiazolyl]methoxy]phenyl]acetic acid] had a melting point of 152 to 153 °C. Further, in data set [1], it took 240 nM to reach a half-maximal effect (EC50).

In the case of `Cc1sc(-c2ccccc2)nc1COc1cc(COc2ncccc2CC(=O)O)on1` [Example 115, 2-[2-[[3-[(5-methyl-2-phenyl-4-thiazolyl)methoxy]-5-isoxazolyl]methoxy]-3-pyridyl]acetic acid], the melting point is 109 to 110 °C. This compound returned a concentration giving a half-maximal response (EC50) in data set [1] of 70 nM. In data set [2] (setting [3]), the inhibition in vivo at 0.005 % was 52%. The inhibition in vivo at 0.005 % in data set [2] (setting [4]) was 87%.

Turning to `Cc1oc(-c2ccccc2)nc1CCOc1ccc(COc2ccccc2CC(=O)O)cn1` [Example 119, 2-[2-[[6-[2-(5-methyl-2-phenyl-4-oxazolyl)ethoxy]-3-pyridyl]methoxy]phenyl]acetic acid], the melting point was 159 to 160 °C. In data set [1], this compound registered an EC50 of 220 nM. Also, the inhibition in vivo at 0.005 % in data set [2] (setting [3]) is 40%. Further, the inhibition in vivo at 0.005 % in data set [2] (setting [4]) amounted to 33%.

Turning to `Cc1oc(-c2ccco2)nc1COc1ccc(COc2ccccc2CC(=O)O)cn1` [Example 124], the melting point lay in the range of 119 to 120 °C. The compound further registered a half-maximal effective concentration (EC50) in data set [1] of 42 nM.

`Cc1nn(-c2ccccn2)cc1COc1ccc(COc2ncccc2CC(=O)O)cc1` [Example 126, 2-[2-[4-[[3-methyl-1-(2-pyridyl)-1H-pyrazol-4-yl]methoxy]benzyloxy]-3-pyridyl]acetic acid] yielded a melting point of 150 to 151 °C. Moreover, the concentration for a half-maximal effect (EC50) in data set [1] came to 1700 nM.

Compound `COc1ccc(COc2cccc(CC(=O)O)c2)cc1OCc1nc(-c2ccccc2)oc1C` [Example 132, 3-[4-methoxy-3-[(2-phenyl-5-methyl-4-oxazolyl)methoxy]benzyloxy]phenylacetic acid] came in with a melting point of 114 to 115 °C. The compound further showed an EC50 in data set [1] of 110 nM.
